For orientation: EC50 means the concentration at which the effect is half-maximal.

Here are results for 2 compounds from paper PMC11801715, “Activating PKC-ε induces HIV expression with improved tolerability” (PLOS Pathogens, 2025).

A short description of data set [1]: Plasma PK in rhesus macaques. Conditions: 0.03, 0.1, 0.3, and 1 mg/kg, slow IV infusion. The format is in vivo, rhesus macaque. As to the method:
Male rhesus macaque monkeys (young adult to adult) were sourced from the Covance stock colony for conduct of in vivo studies at Covance Laboratories Inc. (Madison, Wisconsin, USA). Monkeys were administered a single dose of vehicle control (n = 3), 0.03, 0.1, 0.3, or 1 mg/kg of C-232A (n = 1) by intravenous infusion over 30 minutes using a sentinel approach. An additional 2 male monkeys were administered 0.3 mg/kg C232A after it was determined that this was the maximum tolerated dose level. Blood samples were collected through 24 hours postdose. Samples for PK (for measurement of C-232A concentration) and cytokine analysis were processed to plasma and shipped to Gilead Sciences. Activation of CD4^+ T cells was assessed by measuring CD69 expression levels in whole blood by flow cytometry (Covance Laboratories). Samples for clinical pathology were analyzed at Covance Laboratories for hematology, coagulation, and clinical chemistry panels. […] Tissues were then evaluated independently (Experimental Pathology Laboratories, Inc).
Rat and rhesus plasma samples (20 µL aliquot of each) were treated with 100 µL acetonitrile containing a generic internal small-molecule standard. […] The descriptive PK parameters were analyzed using noncompartmental analysis with Phoenix WinNonlin software (version 8.2, Certara USA, Inc.). […]

For data set [2], the system named is classical isoforms PKC-α, PKC-β1, PKC-β2. The data set can be described thus: Cell fractionation and western blotting in CD4+ T cells. Conditions: 1 hour. It is filed as cell-based. As to the method: (§1) CD4^+ T cells treated with C-232A for 1 hour in a concentration-dependent manner were separated into cytoplasmic and membrane protein fractions using a cell fractionation kit (Cell Signaling Technology, catalog 9038) and protein concentrations quantified using a Pierce BCA assay (Thermo Fisher Scientific, catalog 23227). 4–6 μg of fractionated total protein lysate was fractionated on SDS-PAGE gel using Peggy Sue (Protein Simple). The resulting area under the curve was normalized against β-actin.
(§2) (A) Western blot of PKC isoforms θ, α, β2, and β1 in cytoplasmic and membrane fractions of CD4^+ T cells treated with C-232A. […] Area under the peak generated by western blot analysis of membrane-associated PKC isoforms after treatment and plotted using GraphPad software. AUC plots were used to generate EC50 values (D). (PNG)
On the technique in general: A western blot detects proteins with antibodies after separation by electrophoresis.

The next data set concerns the target PKC-θ (Homo sapiens, UniProt Q04759). The data set is described as above. The format is cell-based. Conditions: 1 hour. The method, then:
as §1, §2

In a further data set the test system is CD69 on CD4+ T cells. The experiment in a line: CD69 expression levels in rhesus blood (flow cytometry). The format is in vivo, rhesus macaque. As to the method: CD69 protein expression levels in whole blood were measured using flow cytometry. Samples, collected in K2EDTA tubes, were surface stained with anti-human monoclonal antibodies against markers CD3 (UCHT1), CD4 (SK3), and activation marker CD69 (FN50) for 30 minutes at RT. Red blood cells were lysed and cells were fixed (BD Lyse/Fix buffer) according to the manufacturer’s instructions. All data were acquired on an LSR II (BD Biosciences) and were analyzed using FlowJo software.

In data set [3] the test system is CD4+ T cells from ART-suppressed people with HIV. The data set can be described thus: Cell viability (Cell Titer Glo). The format is cell-based, human. Conditions: 72 hours, doses that activated HIV RNA. As to the method: Supplementary file ppat.1012874.s011.png: S8 Fig Effect of C-233 on cell viability. CD4^+ T cells from ART-suppressed people with HIV were treated with the indicated C-233 concentrations for 72 hours. Cell viability was assessed using Promega Cell Titer Glo according to manufacturer’s instructions. Bars indicate the means and lines indicate standard deviation from 4 donors, each tested with 8 replicates. (PNG)
(Cellular ATP, detected with luciferase, serves as a proxy for viable cell number.)

Another data set deals with HIV p24. The experiment in a line: HIV p24 digital immunoassay in culture supernatants. The format is cell-based, HIV-1. Conditions: Human immunodeficiency virus 1, CD4+ T, read-out: p24 EC50. As to the method:
The fully automated Quanterix HD-X analyzer for single molecule detection was utilized to measure HIV p24 levels in culture supernatants (stored frozen at –80°C until use). Upon thaw, Triton X-100 was added to a final concentration of 1% to culture supernatants, incubated for 1 hour at room temperature before analysis on the same day. An in-house standard using purified HIV p24 protein was utilized in place of the standard provided in the p24 Simoa kit (Quanterix, catalog 102215). Briefly, p24 protein purchased from Advanced Biotechnologies, catalog 14-101-050, was reconstituted to 200 ng/mL in complete RPMI and stored at –80 in smaller aliquots. Standard curve was made in a […] dilution series from 40000 to 1.8 fg/ml in complete RPMI with 1% Triton X-100. All other assay reagents and assay reaction conditions followed the manufacturer’s protocol. p24 concentration in experimental samples was calculated based on a p24 calibration curve with 4-parameter curve fitting.

Data set [4] deals with cellular p24 in CD4+ T cells. The experiment in a line: Ex vivo HIV-Flow assay in CD4+ T cells. The format is cell-based, HIV-1. Conditions: 500 nM in HIV-Flow, 72 hours. As to the method: Isolated CD4^+ T cells from ART-suppressed people with HIV were cultured in RPMI medium containing 10% FBS, 100 nM efavirenz, and 1 μM tenofovir alafenamide at 2 million cells per mL. These cells were subsequently stimulated with DMSO (vehicle control), 500 nM PKC agonist C-233, or 162 nM PMA and 1 µg/mL ionomycin. The cells were cultured at 37°C, 5% CO2 for 3 days. After 3 days, the cells were washed with PBS, stained with Live/Dead Fixable Aqua for 25 minutes at 4°C, followed by 2% FBS in PBS wash. Cells were then fixed and permeabilized in FoxP3 Fix/Perm buffer (E-Bioscience, catalog 005523) for 45 minutes at 4°C, followed by FoxP3 Perm buffer wash. The samples were stained with 2 different anti-p24 antibodies, (KC57-PE/ Beckman Coulter, 6604667, and a28B7-APC Medimabs, MM-0289-APC) diluted 1:1000 in FoxP3 Perm buffer for 45 minutes at 4°C, washed with FoxP3 Perm buffer, and resuspended in PBS. The samples were run on the BD LSR Fortessa II flow cytometer. The data were analyzed using FlowJo version 10.7.1.
Supplementary file ppat.1012874.s012.png: S9 Fig C-233 induces HIV activation in CD4^+ T cells from ART-suppressed people with HIV. […]

PKC-θ, sequence (Q04759 whole entry): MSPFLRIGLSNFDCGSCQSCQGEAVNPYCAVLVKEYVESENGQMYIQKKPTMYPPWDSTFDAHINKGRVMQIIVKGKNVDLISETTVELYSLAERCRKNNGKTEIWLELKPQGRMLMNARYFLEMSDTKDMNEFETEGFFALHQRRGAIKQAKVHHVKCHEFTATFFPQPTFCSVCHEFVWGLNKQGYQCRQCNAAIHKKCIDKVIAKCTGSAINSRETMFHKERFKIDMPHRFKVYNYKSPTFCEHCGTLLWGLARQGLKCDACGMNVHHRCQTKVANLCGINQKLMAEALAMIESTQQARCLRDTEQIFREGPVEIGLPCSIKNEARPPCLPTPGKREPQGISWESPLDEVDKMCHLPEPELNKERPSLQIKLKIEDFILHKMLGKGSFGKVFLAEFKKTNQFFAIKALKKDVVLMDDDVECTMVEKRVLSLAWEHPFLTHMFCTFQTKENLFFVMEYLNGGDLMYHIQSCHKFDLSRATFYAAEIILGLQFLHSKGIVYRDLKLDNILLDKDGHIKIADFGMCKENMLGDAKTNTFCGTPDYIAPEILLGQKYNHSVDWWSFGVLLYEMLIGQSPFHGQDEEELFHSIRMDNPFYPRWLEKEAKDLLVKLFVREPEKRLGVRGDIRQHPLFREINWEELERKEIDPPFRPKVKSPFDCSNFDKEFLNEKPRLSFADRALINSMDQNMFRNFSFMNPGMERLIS

With `Cc1ccc(C#Cc2ccc3oc(CC(C)(C)C(=O)OCC4(CO)CC(=CCC(CC(C)C)CC(C)C)C(=O)O4)cc3c2)cc1` (centres unmarked) [C-232A], the PK plasma profile entry in data set [1] is given as “dose-dependent C-232A PK plasma profiles”. Further, the “translocation of classical isoforms α, β1, β2” value in data set [2] is “did not translocate classical isoforms α, β1, or β2”. Besides, the “translocation of PKC-θ from cytoplasm to cell membrane” value on PKC-θ is reported as “translocated PKC-θ from the cytoplasm to the cell membrane in a dose-dependent manner”. The “expression of CD69 on CD4+ T cells” value with CD69 on CD4+ T cells (1 mg/kg, at peak) amounted to 59%. Besides, the “time of peak CD69 expression postdose” value in the data set with CD69 on CD4+ T cells (rhesus monkey, in vivo) fell in the range of 4 to 8 h.
In the case of `Cc1ccc(C#Cc2ccc(C(=O)OCC3(CO)Cc4c(-c5ccccc5)ccnc4O3)cc2)cc1` (centres unmarked) [C-233], in data set [3], the cell viability entry was “without impairing viability”. Also, in the data set on HIV p24, the EC50 amounted to 0.428 µM. Further, the “HIV protein production (supernatant p24 and cellular p24 by HIV-Flow)” value in data set [4] is recorded as “activated production of viral protein”.
